According to patent US6916800B2, “Combination therapy including a matrix metalloproteinase inhibitor and an antineoplastic agent” (Pfizer Inc, priority 1998, dated 2005):

Experiments:
melanoma = conditions: 100 mg/kg; cited from earlier work
[1] = 50 mg/kg bid. p.o.; cited from earlier work
[2] = tested on: advanced, rapidly progressive, treatment-refractory solid tumor cancers (colorectal, pancreatic, ovarian, prostate); conditions: cited from earlier work
[3] = dose of 25 mg/kg/day; cited from earlier work
MX-1 tumors [4] = assay: MX-1 Adjuvant Model: cyclophosphamide then MMPI, mean days to tumor weight of 1.5 g; type: in vivo, Mice
Description: Mice were implanted with MX-1 tumors and allowed to grow to 50-100 mm3. The animals were dosed with cyclophosphamide (100 or 80 mpk). This was considered Day 1. Two weeks later the animals were pair matched after tumor regression and dosing BID with the MMPI was begun until the end of the experiment. Tumors were measured weekly.

MX-1 tumors [5] = assay: MX-1 Breast Tumor with Taxol: MMPI BID, endpoint 1.5 g; type: in vivo, Mice; conditions: MX-1 tumor
Description: MDS=mean days to tumor weight of 1.5 g 4. MX-1 Breast Tumor with Taxol:
Mice were implanted with MX-1 tumors and allowed to grow to 50-100 mg. The animals were pair matched and this was considered Day 1. Treatment with MMPI was begun BID on Day 1 until the end of the experiment. […] Tumors were measured weekly until an endpoint of 1.5 g was reached.

SK-mes tumors = assay: SK-mes Tumor with Taxol: MMPI BID, endpoint 1.0 g; type: in vivo, Mice
Description: 5. SK-mes Tumor with Taxol
(§1) Mice were implanted with SK-mes tumors and allowed to grow to 50-100 mg. The animals were pair matched and this was considered Day 1. Treatment with MMPI was begun BID on Day 1 until the end of the experiment. Taxol was injected IP (18 or 9 mpk) QD for 5 days (days 1-5). Tumors were measured weekly until an endpoint of 1.0 g was reached.

HT-29 tumors = assay: HT-29 Tumor with Irinotecan: MMPI BID, endpoint 1.0 g; type: in vivo, Mice
Description: 6. HT-29 Tumor with Irinotecan
as §1, with “HT-29” for “SK-mes”, “Irinotecan” for “Taxol”, “(100” for “(18”, “50” for “9”

PC-3 tumor cells = assay: Pancreatic Cell (PC-3) Model: MMP inhibitor with cisplatin, tumor volume; type: in vivo; conditions: PC3 model, n=10
Description: 1. Pancreatic Cell (PC-3) Model:
In this study, the test groups were a vehicle control, Compound M14, Compound M14 with cisplatin and cisplatin alone with n=10 for each group. The tumors were measured with a caliper and the volume calculated using the formula for the volume of an elipsoid. The cisplatin dose was 10 mpk administered by the intraperitonal route on day 8 post injecion of tumor cells Compound M14, 50 mpk, was first administered about 6:00 pm the evening of the same day that the tumor cells were injected in the morning. The same dose of Compound M14 was administered bid for each following day. Tumor volume (mm^3) was measured on day 25.

MX-1 breast tumor = assay: Breast Tumor Model: MX-1 with Compound M14 and Taxol, tumor volume; type: in vivo, nude mice; conditions: for Tumor Volume at Day 25: MX-1 model, nude mice
Description: This study was carried out essentially as PC-3 model. MX-1 breast tumor pieces were implanted (with a trocar) into nude mice with n=10 per group. Dosing with Compound M14 (10 mpk or 50 mpk, PO bid) was initiated when the tumors reached a size of 60-120 mg. Dosing was continued for 26 days. Taxol was administered at a dose of 9 mpk for the first five days following the start of dosing by the interperitonal route. The tumors were measured using a caliper and the volume calculated using the formula for the volume of an elipsoid.

[6] = dose dependent at 27, 125 and 375 µg; cited from earlier work
colonic epithelia = conditions: variety of cell model systems including colonic epithelia; cited from earlier work
[7] = doses of 15 mg/kg/day; cited from earlier work
Primary tumors = conditions: cited from earlier work
[8] = mmpi alone, Compound M14 20 mpk BID
[9] = mmpi alone, Compound M14 100 mpk BID
[10] = taxol 9 mpk + Compound M14 20 mpk BID
[11] = taxol 9 mpk + Compound M14 100 mpk BID
[12] = taxol 18 mpk + Compound M14 20 mpk BID
[13] = taxol 18 mpk + Compound M14 100 mpk BID

## 2-Pyrolylthiochromone
melanoma
  inhibition: 37%

## CNC(=O)[C@H](CC1CCCCC1)NC(=O)[C@H](CC(C)C)[C@H](O)C(=O)NO (relative stereo) [BB-1433, Butanediamide, N1-[1(cyclohexylmethyl)-2(methylamino)-2-oxoethyl]-N4,3-dihydroxy-2-(2-methylpropyl)-, [2R[N1(S*),2R*,3S*]]-]
[1]
  bone mineral density loss: inhibited

## CNC(=O)[C@@H](NC(=O)[C@H](CC(C)C)[C@H](O)C(=O)NO)C(C)(C)C (relative stereo) [marimastat, N4-[2,2-dimethyl-1-[(methylamino)carbonyl]propyl]-N1,2-dihydroxy-3 (2-methylpropyl)-, [2S-[N4(R*),2R*,3S*]]-)]
[2]; clinical trials
  most common drug-related toxicity: musculoskeletal pain and stiffness
[2]; patients, Phase I/II
  rise of cancer-specific antigens used as surrogate markers for biological activity: dose-related reduction

## CC1(C)SCCN(S(=O)(=O)c2ccc(Oc3ccc(-n4ccnc4)cc3)cc2)[C@H]1C(=O)NO [3(S)-N-hydroxy-4-(4-[4-(imidazol-1-yl)phenoxy]benzenesulfonyl)-2,2-dimethyl-tetrahydro-2H-1,4-thiazine-3-carboxamide]
[3]
  weight loss inhibition: gave 97.5%

## C#CCN1CCC(C(=O)NO)(S(=O)(=O)c2ccc(Sc3ccccc3)cc2)CC1.Cl [Compound M14, N-hydroxy-4-[[4-(phenylthio)phenyl]sulfonyl]-1-(2-propynyl)-4-piperidinecarboxamide monohydrochloride]
MX-1 tumors [4]; cyclophosphamide 0 mpk (so in the source), then Compound M14 200 mpk BID
  MDS (mean days to tumor weight of 1.5 g): 53.9 days
MX-1 tumors [4]; cyclophosphamide 80 mpk, then Compound M14 50 mpk BID
  MDS (mean days to tumor weight of 1.5 g): 44.2 days
MX-1 tumors [4]; cyclophosphamide 100 mpk, then Compound M14 50 mpk BID
  MDS (mean days to tumor weight of 1.5 g): 43.7 days
MX-1 tumors [4]; cyclophosphamide 100 mpk, then Compound M14 200 mpk BID
  MDS (mean days to tumor weight of 1.5 g): 52.7 days
MX-1 tumors [5]; [8]
  MDS (MDS = 1.5 g): 34.7 days
MX-1 tumors [5]; [9]
  MDS (MDS = 1.5 g): 32.2 days
MX-1 tumors [5]; [10]
  MDS (MDS = 1.5 g): 39.3 days
MX-1 tumors [5]; [11]
  MDS (MDS = 1.5 g): 46.7 days
MX-1 tumors [5]; [12]
  MDS (MDS = 1.5 g): 59.3 days
MX-1 tumors [5]; [13]
  MDS (MDS = 1.5 g): 61 days
MX-1 tumors [5]; taxol + mmpi as printed, taxol 9 mpk IP QD days 1-5, no MMPI dose printed
  MDS (MDS = 1.5 g): 30.1 days
MX-1 tumors [5]; taxol + mmpi as printed, taxol 18 mpk IP QD days 1-5, no MMPI dose printed
  MDS (MDS = 1.5 g): 56 days
SK-mes tumors; [8]
  MDS (MDS = 1.0 g): 18 days
SK-mes tumors; [9]
  MDS (MDS = 1.0 g): 24.7 days
SK-mes tumors; [10]
  MDS (MDS = 1.0 g): 34.1 days
SK-mes tumors; [11]
  MDS (MDS = 1.0 g): 34.8 days
SK-mes tumors; [12]
  MDS (MDS = 1.0 g): 39.5 days
SK-mes tumors; [13]
  MDS (MDS = 1.0 g): 43 days
HT-29 tumors; Irinotecan 50 mpk + Compound M14 20 mpk BID
  MDS (MDS = 1.0 g): 36.1 days
HT-29 tumors; Irinotecan 50 mpk + Compound M14 100 mpk BID
  MDS (MDS = 1.0 g): 44.4 days
HT-29 tumors; Irinotecan 100 mpk + Compound M14 20 mpk BID
  MDS (MDS = 1.0 g): 40.6 days
HT-29 tumors; Irinotecan 100 mpk + Compound M14 100 mpk BID
  MDS (MDS = 1.0 g): 51.4 days
HT-29 tumors; [8]
  MDS (MDS = 1.0 g): 36 days
HT-29 tumors; [9]
  MDS (MDS = 1.0 g): 37.9 days
PC-3 tumor cells; Compound M14 50 mpk bid with cisplatin 10 mpk ip day 8
  Tumor Volume at Day 25: 110 mm^3
PC-3 tumor cells; Compound M14 alone, 50 mpk bid
  Tumor Volume at Day 25: 480 mm^3
MX-1 breast tumor; Compound M14 10 mpk or 50 mpk PO bid for 26 days with Taxol 9 mpk for the first five days
  response (tumor volume): improved response
MX-1 breast tumor; Compound M14 @ 10 mpk + taxol @ 9 mpk
  Tumor Volume at Day 25: 240 mm^3
MX-1 breast tumor; Compound M14 @ 10 mpk PO bid alone
  Tumor Volume at Day 25: 960 mm^3
MX-1 breast tumor; Compound M14 @ 50 mpk + taxol @ 9 mpk
  Tumor Volume at Day 25: 480 mm^3
MX-1 breast tumor; Compound M14 @ 50 mpk PO bid alone
  Tumor Volume at Day 25: 1260 mm^3

## CC(C)(S)[C@@H](N)C(=O)O [D-penicillamine]
[6]
  allergic encephalitis symptom scores: reduced

## CCc1c2c(nc3ccc(OC(=O)N4CCC(N5CCCCC5)CC4)cc13)-c1cc3c(c(=O)n1C2)COC(=O)[C@]3(O)CC [Irinotecan, reference compound]
HT-29 tumors; Irinotecan alone 50 mpk IP QD days 1-5
  MDS (MDS = 1.0 g): 38.1 days
HT-29 tumors; Irinotecan alone 100 mpk IP QD days 1-5
  MDS (MDS = 1.0 g): 36.7 days

## CC(=O)O[C@H]1C(=O)[C@@]2(C)[C@H]([C@H](OC(=O)c3ccccc3)[C@]3(O)C[C@H](OC(=O)[C@H](O)[C@@H](NC(=O)c4ccccc4)c4ccccc4)C(C)=C1C3(C)C)[C@]1(OC(C)=O)CO[C@@H]1C[C@@H]2O [Taxol, reference compound]
SK-mes tumors; taxol alone 9 mpk IP QD days 1-5
  MDS (MDS = 1.0 g): 26.1 days
SK-mes tumors; taxol alone 18 mpk IP QD days 1-5
  MDS (MDS = 1.0 g): 31.5 days
MX-1 breast tumor; taxol alone, 9 mpk ip first five days
  Tumor Volume at Day 25: 1280 mm^3

## C[C@H](CCC(=O)O)[C@H]1CC[C@H]2[C@@H]3[C@@H](O)C[C@@H]4C[C@H](O)CC[C@]4(C)[C@H]3CC[C@]12C [URSO]
Colonic epithelia
  cytotoxicity: non cytotoxic
[7]
  tolerability and toxicity: extremely well tolerated and without toxicity

## N.N.[Cl][Pt][Cl] [cisplatin, Platinum, diamminedichloro-, (SP-4-2)-, reference compound]
PC-3 tumor cells; cisplatin alone, 10 mpk intraperitoneal on day 8
  Tumor Volume at Day 25: 630 mm^3

## O=P1(N(CCCl)CCCl)NCCCO1 (stereo not shown) [cyclophosphamide, reference compound]
MX-1 tumors [4]; cyclophosphamide 80 mpk alone
  MDS (mean days to tumor weight of 1.5 g): 37.2 days
MX-1 tumors [4]; cyclophosphamide 100 mpk alone
  MDS (mean days to tumor weight of 1.5 g): 39.5 days

## endostatin
Primary tumors; in vivo
  toxicity: not observed
Primary tumors; non-refolded suspensions
  primary tumor response: regressed to dormant microscopic lesions
